The NIST ThermoML archive (doi:10.1016/j.jct.2014.11.014)
± gives the expanded uncertainty stated by the source.

Assay: osmotic coefficient (dimensionless); mn = molality of the nth substance listed, in mol/kg
Details: 298.15 K, 100 kPa, Liquid, isopiestic method

| osmotic coefficient (m1 = 1.014) | osmotic coefficient (m1 = 2.276) | osmotic coefficient (m1 = 2.931) | osmotic coefficient (m1 = 3.121) | osmotic coefficient (m1 = 3.201) | osmotic coefficient (m1 = 3.445) | osmotic coefficient (m1 = 3.639) | osmotic coefficient (m1 = 0.6482) | osmotic coefficient (m1 = 1.344) | osmotic coefficient (m1 = 1.706) | osmotic coefficient (m1 = 1.869) | osmotic coefficient (m1 = 1.921) | osmotic coefficient (m1 = 2.034) | osmotic coefficient (m1 = 2.247) | SMILES |
| --- | --- | --- | --- | --- | --- | --- | --- | --- | --- | --- | --- | --- | --- | --- |
| 0.986 ± 0.01 | 0.876 ± 0.011 | 0.855 ± 0.011 | 0.875 ± 0.011 | 0.872 ± 0.011 | 0.861 ± 0.011 | 0.889 ± 0.011 | – | – | – | – | – | – | – | N[C@@H](CO)C(=O)O [L-serine] + O |
| – | – | – | – | – | – | – | 0.771 ± 0.013 | 0.742 ± 0.014 | 0.734 ± 0.014 | 0.731 ± 0.014 | 0.726 ± 0.014 | 0.729 ± 0.014 | 0.719 ± 0.014 | CCCCn1cc[n+](C)c1.[Br-] [1-butyl-3-methylimidazolium bromide] + O |
